Measurements taken from US7741023B2, “Method for predicting immune response to neoplastic disease based on mRNA expression profile in neoplastic cells and stimulated leukocytes” (Hitachi Chemical Co., Ltd., priority 2005, dated 2010).

Test system: TNF superfamily subtype 3 mRNA
Test: effect of dietary components on HAG-induced TNF superfamily subtype 3 mRNA in whole blood
Type: cell-based, human
Conditions: 100 nM, pre-incubation 37° C. 1 hour, then HAG; one individual, FIG. 10
Method: Triplicate aliquots of 50 μL each of heparinized whole blood was incubated with 200 μg/mL HAG at 37° C. for 2 hours. Then blood samples were applied to 96-well filterplates to trap leukocytes, and cell lysates were transferred to 96-well oligo(dT)-immobilized microplates for isolation of poly(A)^+ mRNA as described above. cDNA was synthesized on the microplates and was used for real-time polymerase chain reaction (PCR) in 384-well plates by monitoring SYBR Green fluorescence (see Morrison et al., Quantification of low-copy transcripts by continuous SYBR Green I monitoring during amplification. Biotechniques 1998; 24:954-8, 960, 96). […] The Ct was determined by analytical software (SDS, ABI). The PCR conditions were carefully optimized, so that a single appropriate peak was detected on melting curve analysis without any primer dimers. To validate the assay conditions, synthetic RNA34 was spiked into the lysis buffer, and this RNA34 was also quantitated by real time PCR. […] The Ct was set equal to the PCR cycle where certain amounts of PCR products were generated, and delta Ct (ΔCt) was also calculated by subtracting the Ct values of the un-stimulated samples from those of the stimulated samples. Since Ct is a log scale, 1 ΔCt means double or one half in quantity, and a negative ΔCt indicates an increase in expression. […]

In the case of `O=c1c(O)c(-c2ccc(O)c(O)c2)oc2cc(O)cc(O)c12` [quercetin], the “HAG-induced TNF superfamily subtype 3 expression in blood pre-exposed to dietary component” value is reported as “significant (p=0.03) induction”.
